The target in the experiment is T1, cAMP-phosphodiesterase (PDE).
T1 construct: gene PDE1A; enzyme of commercial Abcam colorimetric PDE kit
In words: colorimetric PDE activity kit ab139460, plate reader […] nm. In kind it is biochemical. To be noted: two-range dilution, measuring error 10%, isoenzyme not told, read-out: IC50 **^1.

Like-named read-outs stand apart in the source and are kept apart here.

As to `OCCN(CCO)c1nc(N2CCCCC2)c2nc(N(CCO)CCO)nc(N3CCCCC3)c2n1` [10 (D10), 2,6-bis-diethanolamino-4,8-dipiperidinopyrimido(5,4-d)-pyrimidine], the IC50 is 5 µM. For `CC(C)Cn1c(=O)n(C)c(=O)c2[nH]cnc21` [compound 11, 3-isobutyl-1-methylxanthine], the IC50 (control from kit) came to 5 µM.

What is called IC50 is the point on the concentration scale where inhibition reaches its midpoint.

For the origin of these results see article PMC12026006, “Phosphodiesterase Inhibition and Immunotropic Activity of Dipyridamole Dynamic Derivatives” (Current Issues in Molecular Biology, 2025).
